Results from patent US20210188775A1, “CARBOXAMIDE AND SULFONAMIDE DERIVATIVES USEFUL AS TEAD MODULATORS” (Genentech, Inc., priority 2018, published 2021).

Experiments:
Assay type in all cases: binding
TEAD1 = TEAD1 (Homo sapiens, UniProt P28347); test: Lipid HTRF TEAD1
TEAD2 [1] = target: T1, TEAD2 (Homo sapiens, UniProt Q15562); test: Lipid HTRF TEAD2
TEAD3 [2] = target: T2, TEAD3 (Homo sapiens, UniProt Q99594); test: Lipid HTRF TEAD3
TEAD4 = TEAD4 (Homo sapiens, UniProt Q15561); test: Lipid HTRF TEAD4
TEAD2 [3] = target: T1, TEAD2; test: TEAD lipid assay (Lipid FP, Bodipy-C16 probe displacement); conditions: fluorescence polarization, His-tagged TEAD, 60 minutes incubation
Procedure: (§1) A TEAD lipid assay was done according to the following method. His-tagged TEAD proteins were pre-incubated with a Bodipy-C16 FP probe (Life Technologies Cat #D3821) for 30 minutes at room temperature to pre-form TEAD-probe complex. […] Duplicate 10 point dose response curves were generated for each test compound. The potency of compounds as TEAD lipid pocket binders was determined by IC50 value generated using a non-linear 4 parameter curve fit.

TEAD3 [4] = target: T2, TEAD3; test: as above; conditions: fluorescence polarization, His-tagged TEAD, 60 minutes incubation
Procedure: as §1

Chain of TEAD1 (P28347 whole entry, species assumed): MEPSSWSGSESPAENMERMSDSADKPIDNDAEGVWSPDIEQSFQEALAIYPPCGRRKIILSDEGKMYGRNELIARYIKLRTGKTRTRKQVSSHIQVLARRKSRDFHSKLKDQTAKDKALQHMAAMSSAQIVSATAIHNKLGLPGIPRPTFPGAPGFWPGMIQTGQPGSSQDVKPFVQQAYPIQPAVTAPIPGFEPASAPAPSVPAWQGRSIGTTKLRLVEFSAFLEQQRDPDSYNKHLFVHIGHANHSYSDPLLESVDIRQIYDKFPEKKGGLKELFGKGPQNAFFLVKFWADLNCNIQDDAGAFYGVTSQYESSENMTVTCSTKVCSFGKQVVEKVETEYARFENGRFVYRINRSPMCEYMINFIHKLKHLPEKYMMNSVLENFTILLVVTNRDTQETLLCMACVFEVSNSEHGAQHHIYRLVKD
Chain of TEAD4 (Q15561 whole entry, species assumed): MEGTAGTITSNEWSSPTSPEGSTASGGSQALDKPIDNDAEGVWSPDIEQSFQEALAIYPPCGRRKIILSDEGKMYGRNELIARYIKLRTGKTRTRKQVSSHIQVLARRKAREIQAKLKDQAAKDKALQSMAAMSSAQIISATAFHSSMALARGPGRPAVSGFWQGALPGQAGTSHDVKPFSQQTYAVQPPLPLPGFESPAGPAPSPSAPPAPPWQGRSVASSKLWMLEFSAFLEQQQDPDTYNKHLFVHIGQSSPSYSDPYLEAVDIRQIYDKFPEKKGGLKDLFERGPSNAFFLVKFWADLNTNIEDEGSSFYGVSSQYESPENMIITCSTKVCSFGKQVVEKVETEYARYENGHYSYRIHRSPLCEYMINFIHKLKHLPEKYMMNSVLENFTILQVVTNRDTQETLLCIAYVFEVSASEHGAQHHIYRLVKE
T1 sequence (Q15562 whole entry, species assumed): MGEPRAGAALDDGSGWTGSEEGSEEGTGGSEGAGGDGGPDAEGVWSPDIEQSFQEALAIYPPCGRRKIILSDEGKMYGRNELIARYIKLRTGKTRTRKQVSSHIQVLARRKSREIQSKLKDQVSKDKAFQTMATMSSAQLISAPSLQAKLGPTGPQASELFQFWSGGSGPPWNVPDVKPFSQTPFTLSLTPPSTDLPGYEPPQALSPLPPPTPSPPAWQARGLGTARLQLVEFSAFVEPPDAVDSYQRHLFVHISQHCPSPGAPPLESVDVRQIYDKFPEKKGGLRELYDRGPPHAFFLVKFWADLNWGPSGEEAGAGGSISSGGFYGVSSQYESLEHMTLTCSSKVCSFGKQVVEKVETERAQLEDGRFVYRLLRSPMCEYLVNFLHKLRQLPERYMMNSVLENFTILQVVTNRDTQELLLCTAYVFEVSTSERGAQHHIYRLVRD
T2 sequence (Q99594 whole entry, species assumed): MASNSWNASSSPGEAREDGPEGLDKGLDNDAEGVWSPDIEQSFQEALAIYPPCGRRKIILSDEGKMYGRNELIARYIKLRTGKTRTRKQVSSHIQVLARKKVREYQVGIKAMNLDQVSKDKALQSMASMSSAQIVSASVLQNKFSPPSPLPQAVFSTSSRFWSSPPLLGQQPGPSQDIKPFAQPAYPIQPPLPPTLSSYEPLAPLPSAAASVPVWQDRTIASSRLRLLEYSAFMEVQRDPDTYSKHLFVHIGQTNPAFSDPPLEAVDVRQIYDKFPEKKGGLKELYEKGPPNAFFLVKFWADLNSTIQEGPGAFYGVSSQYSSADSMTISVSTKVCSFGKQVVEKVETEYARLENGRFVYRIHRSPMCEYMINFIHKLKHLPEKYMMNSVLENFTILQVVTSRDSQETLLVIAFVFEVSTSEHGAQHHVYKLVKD

Structure (SMILES)	IC50 (TEAD1)	IC50 (TEAD2 [1])	IC50 (TEAD3 [2])	IC50 (TEAD4)	IC50 (TEAD2 [3])	IC50 (TEAD3 [4])
CNC(=O)Cc1cccc(CNC(=O)c2cnc(OC)c(/C=C/C3CCC(F)(F)CC3)c2)c1 [Compound 54, (E)-5-(2-(4,4-difluorocyclohexyl)vinyl)-6-methoxy-N-(3-(2-(methylamino)-2-oxoethyl)benzyl)nicotinamide]	318 nM	146 nM	4000 nM	224 nM		
CNC(=O)Cc1cccc(CNC(=O)c2cnc(OC)c(/C=C/[C@H]3CC[C@@H](C(F)(F)F)CC3)c2)c1 [Compound 56A, 6-Methoxy-N-(3-(2-(methylamino)-2-oxoethyl)benzyl)-5-((E)-2-(cis-4-(trifluoromethyl)cyclohexyl)vinyl)nicotinamide]	708 nM	79 nM	15200 nM	355 nM		
CNC(=O)Cc1cccc(CNC(=O)c2cc(/C=C/C3CCC(F)(F)CC3)c(OC)cn2)c1 [Compound 55, (E)-4-(2-(4,4-Difluorocyclohexyl)vinyl)-5-methoxy-N-(3-(2-(methylamino)-2-oxoethyl)benzyl)picolinamide]	198 nM	89 nM	230 nM	73 nM		
CNC(=O)Cc1cccc(CNC(=O)c2cc(/C=C/[C@H]3CC[C@H](C(F)(F)F)CC3)c(OC)cn2)c1 [Compound 57B, 5-methoxy-N-(3-(2-(methylamino)-2-oxoethyl)benzyl)-4-((E)-2-(trans-4-(trifluoromethyl)cyclohexyl)vinyl) picolinamide]	128 nM	17 nM	298 nM	19 nM		
CC[C@H](CO)NC(=O)c1cc(/C=C/C2CCC(F)(F)CC2)c(OC)cn1 (racemic) [Compound 41, 5-methoxy-4-[rac-(E)-2-(4,4-difluorocyclohexyl)vinyl]-N-[rac-(1R)-1-(hydroxymethyl)propyl]pyridine-2-carboxamide]					1800 nM	1100 nM
CNC(=O)Cc1cccc(CNC(=O)c2cnc(OC)c(/C=C/[C@H]3CC[C@H](C(F)(F)F)CC3)c2)c1 [Compound 56B, 6-methoxy-N-(3-(2-(methylamino)-2-oxoethyl)benzyl)-5-((E)-2-(trans-4-(trifluoromethyl)cyclohexyl)vinyl) nicotinamide]	193 nM	31 nM	2090 nM	39 nM		
CCOc1ncc(NS(C)(=O)=O)cc1/C=C/C1CCC(F)(F)CC1 [Compound 18, N-[5-[(E)-2-(4,4-difluorocyclohexyl)vinyl]-6-ethoxy-3-pyridyl]methanesulfonamide]					1900 nM	1200 nM
COc1ccc(C(N)=O)cc1/C=C/Cc1ccccc1 [Compound 32, 4-methoxy-3-[(E)-3-phenylprop-1-enyl]benzamide]					610 nM	1400 nM
COc1cnc(NS(C)(=O)=O)cc1/C=C/C1CCC(C(F)(F)F)CC1 (centres unmarked) [Compound 48, (E)-N-(5-methoxy-4-(2-(4-(trifluoromethyl)cyclohexyl)vinyl)pyridin-2-yl)methanesulfonamide]					1100 nM	1600 nM
CNC(=O)Cc1cccc(CNC(=O)c2cc(/C=C/[C@H]3CC[C@@H](C(F)(F)F)CC3)c(OC)cn2)c1 [Compound 57A, 5-Methoxy-N-(3-(2-(methylamino)-2-oxoethyl)benzyl)-4-((E)-2-(cis-4-(trifluoromethyl)cyclohexyl)vinyl) picolinamide]	389 nM	46 nM	867 nM	131 nM		
Cc1cn(Cc2ccc(Cl)cc2)c2cc(NS(C)(=O)=O)ccc12 [Compound 22, N-[1-[(4-chlorophenyl)methyl]-3-methyl-indol-6-yl]methanesulfonamide]					930 nM	1300 nM
COc1ccc(C(=O)NC(C)C)cc1[C@H]1C[C@H](c2ccc(Cl)cc2)C1 (single isomer, unassigned) [Compound 9A]					780 nM	1600 nM
COc1ncc(NS(C)(=O)=O)cc1C1CC(c2ccc(Cl)cc2)C1 (centres unmarked) [Compound 13, N-[5-[3-(4-chlorophenyl)cyclobutyl]-6-methoxy-3-pyridyl]methanesulfonamide]					730 nM	1800 nM
CC[C@H](CO)NC(=O)c1cnc(OC)c(/C=C/C2CCC(F)(F)CC2)c1 (racemic) [Compound 35, 6-methoxy-5-[rac-(E)-2-(4,4-difluorocyclohexyl)vinyl]-N-[rac-(1R)-1-(hydroxymethyl)propyl]pyridine-3-carboxamide]					1900 nM	1400 nM
COc1ccc(NS(C)(=O)=O)cc1/C=C/C1CCC(C)(C)CC1 [Compound 5, N-[3-[(E)-2-(4,4-dimethylcyclohexyl)vinyl]-4-methoxy-phenyl]methanesulfonamide]					600 nM	770 nM
COc1ccc(NS(C)(=O)=O)cc1C1CC1C1CCCCC1 (single isomer, unassigned) [Compound 1B, N-(3-(2-Cyclohexylcyclopropyl)-4-methoxyphenyl)methanesulfonamide]					1000 nM	1800 nM
COc1ncc(NS(=O)(=O)CC(C)(C)C#N)cc1/C=C/C1CCC(F)(F)CC1 [Compound 50, 2-cyano-N-[5-[(E)-2-(4,4-difluorocyclohexyl)vinyl]-6-methoxy-3-pyridyl]-2-methyl-propane-1-sulfonamide]					1300 nM	1100 nM
COc1ccc(NS(C)(=O)=O)cc1/C=C/CC1CCCCC1 [Compound 4, N-[3-[(E)-3-cyclohexylprop-1-enyl]-4-methoxy-phenyl]methanesulfonamide]					960 nM	1300 nM
COc1ccc(NS(=O)(=O)C2CC2)cc1/C=C/C1CCCCC1 [Compound 28, N-[3-[(E)-2-cyclohexylvinyl]-4-methoxy-phenyl]cyclopropanesulfonamide]					890 nM	1000 nM
C=CS(=O)(=O)Nc1cnc(OC)c(/C=C/C2CCC(F)(F)CC2)c1 [Compound 58, N-[5-[(E)-2-(4,4-difluorocyclohexyl)vinyl]-6-methoxy-3-pyridyl]ethenesulfonamide]	34 nM	10 nM	34 nM	8 nM		
COc1ccc(NS(C)(=O)=O)cc1/C=C/C1CCCC1 [Compound 3, N-[3-[(E)-2-cyclopentylvinyl]-4-methoxy-phenyl]methanesulfonamide]					580 nM	1800 nM
COc1ccc(C(=O)NC(C)CCO)cc1/C=C/c1ccc(Cl)cc1 (single isomer, unassigned) [Compound 51, 3-[(E)-2-(4-chlorophenyl)vinyl]-N-(3-hydroxy-1-methyl-propyl)-4-methoxy-benzamide]					960 nM	2000 nM
COc1cnc(C(=O)NC[C@H](O)CO)cc1/C=C/C1CC2(CC2)C1 [Compound 43, (E)-N-(2,3-dihydroxypropyl)-5-methoxy-4-(2-(spiro[2.3]hexan-5-yl)vinyl)picolinamide]					980 nM	1700 nM
COc1ncc(NS(C)(=O)=O)cc1/C=C/C1CCC(F)(F)CC1 [Compound 14, N-[5-[(E)-2-(4,4-difluorocyclohexyl)vinyl]-6-methoxy-3-pyridyl]methanesulfonamide]					380 nM	430 nM
COc1ncc(NS(C)(=O)=O)cc1/C=C/C1CC(C(F)(F)F)C1 (racemic) [Compound 37, N-[6-methoxy-5-[rac-(E)-2-[3-(trifluoromethyl)cyclobutyl]vinyl]-3-pyridyl]methanesulfonamide]					750 nM	1300 nM
CC[C@H](CO)NC(=O)c1cc(/C=C/C2CC3(CC3)C2)c(OC)nn1 [Compound 47, (E)-N-(1-hydroxybutan-2-yl)-6-methoxy-5-(2-(spiro[2.3]hexan-5-yl)vinyl)pyridazine-3-carboxamide]					1800 nM	860 nM
COc1cnc(NS(C)(=O)=O)cc1/C=C/C1(F)CCC(C(F)(F)F)CC1 (centres unmarked) [Compound 21, N-[4-[(E)-2-[1-fluoro-4-(trifluoromethyl)cyclohexyl]vinyl]-5-methoxy-2-pyridyl]methanesulfonamide]					860 nM	630 nM
COc1ncc(C(=O)NC(C)CCO)cc1/C=C/c1ccc(Cl)cc1 (single isomer, unassigned) [Compound 19, 5-[(E)-2-(4-chlorophenyl)vinyl]-N-(3-hydroxy-1-methyl-propyl)-6-methoxy-pyridine-3-carboxamide]					1900 nM	1600 nM
COc1ccc(C(=O)NC(C)C)cc1/C=C/Cc1ccccc1 [Compound 30, N-isopropyl-4-methoxy-3-[(E)-3-phenylprop-1-enyl]benzamide]					720 nM	620 nM
COc1cc(F)c(NS(=O)(=O)C2CC2)cc1/C=C/c1ccc(Cl)cc1 [Compound 10, N-[5-[(E)-2-(4-chlorophenyl)vinyl]-2-fluoro-4-methoxy-phenyl]cyclopropanesulfonamide]					1100 nM	1900 nM
